Test results: ChEMBL document CHEMBL1125983, “Synthesis and evaluation of new protein-tyrosine kinase inhibitors. Part 2. Phenylhydrazones” (Bioorg Med Chem Lett, 1991)

Biological target: Tyrosine-protein kinase Lck (Homo sapiens, UniProt P06239)
Experiment: Inhibitory concentration against phosphorylation of angiotensin I catalyzed by protein-tyrosine kinase p56lck

Chain of Tyrosine-protein kinase Lck (P06239 whole entry): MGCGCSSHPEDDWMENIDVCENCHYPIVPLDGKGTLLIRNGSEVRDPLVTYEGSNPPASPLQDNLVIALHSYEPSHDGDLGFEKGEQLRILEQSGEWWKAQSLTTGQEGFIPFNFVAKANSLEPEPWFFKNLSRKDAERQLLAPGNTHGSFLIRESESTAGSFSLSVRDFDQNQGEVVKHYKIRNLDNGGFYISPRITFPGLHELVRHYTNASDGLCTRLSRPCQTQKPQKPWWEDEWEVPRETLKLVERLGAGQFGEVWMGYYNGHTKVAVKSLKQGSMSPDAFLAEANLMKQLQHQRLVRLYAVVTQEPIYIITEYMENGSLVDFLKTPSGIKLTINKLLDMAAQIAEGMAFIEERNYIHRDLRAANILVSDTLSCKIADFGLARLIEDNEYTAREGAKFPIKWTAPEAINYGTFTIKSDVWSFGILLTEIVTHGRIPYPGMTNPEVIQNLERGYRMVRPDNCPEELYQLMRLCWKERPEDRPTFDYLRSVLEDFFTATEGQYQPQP

IC50 [µM] | SMILES
310 | COc1ccc(N/N=C/c2cc(O)ccc2O)cc1
> 3500 | Oc1ccc(O)c(/C=N/Nc2ccccc2)c1
> 2900 | Brc1ccc(N/N=C/c2ccccn2)cc1
> 2900 | Brc1ccc(N/N=C/c2cccnc2)cc1
> 2160 | Oc1ccc(Br)cc1/C=N/Nc1ccc(Br)cc1
1040 | Oc1ccc(/C=N/Nc2ccc(Br)cc2)c(O)c1O
> 2600 | Oc1ccc(Br)cc1/C=N/Nc1ccccc1
> 2900 | Brc1ccc(N/N=C/c2ccncc2)cc1
> 2490 | COc1ccc(/C=N/Nc2ccc(Br)cc2)cc1O
599 | Oc1ccc(/C=N/Nc2ccc(Br)cc2)cc1O
521 | Oc1ccc(/C=N/Nc2ccc(Br)cc2)c(O)c1

The remaining lines, values behind:

SMILES | IC50 [µM]
COc1ccc(N/N=C/c2cccc(O)c2O)cc1 | 310
C(=N\Nc1ccccn1)/c1cccnc1 | 400
O=[N+]([O-])c1ccc(N/N=C/c2cccc(O)c2O)c([N+](=O)[O-])c1 | > 2510
Oc1ccc(/C=N/Nc2ccccc2)c(O)c1 | 350
Oc1ccc(/C=N/Nc2ccccn2)c(O)c1 | 1010
Oc1ccc(/C=N/Nc2ccccc2)c(O)c1O | 1570
COc1cc(/C=N/Nc2ccccc2)ccc1O | 2590
Oc1cc(/C=N/Nc2ccccn2)cc(O)c1O | 179
O=[N+]([O-])c1ccc(N/N=C/c2ccc(O)c(O)c2O)c([N+](=O)[O-])c1 | 144
COc1ccc(/C=N/Nc2ccccc2)cc1O | 2110
C(=N\Nc1ccccc1)/c1ccccn1 | > 4060
Oc1ccc(/C=N/Nc2ccccn2)c(O)c1O | 522
O=[N+]([O-])c1ccc(N/N=C/c2ccc(O)cc2O)c([N+](=O)[O-])c1 | 1000
O=[N+]([O-])c1ccc(/C=N/Nc2ccccc2)cc1 | > 3320
C(=N\Nc1ccccc1)/c1ccncc1 | > 4060
C(=N\Nc1ccccc1)/c1cccnc1 | 1320
COc1ccc(N/N=C/c2ccc(O)c(O)c2)cc1 | 743
Oc1ccc(/C=N/Nc2ccccn2)cc1O | 227
O=[N+]([O-])c1ccc(N/N=C/c2ccc(O)c(O)c2)c([N+](=O)[O-])c1 | 352
Oc1ccc(/C=N/Nc2ccccc2)cc1O | 70
O=[N+]([O-])c1cccc(/C=N/Nc2ccccc2)c1 | > 3320
Oc1cccc(/C=N/Nc2ccccc2)c1O | 1260
